Data on two compounds can be found in patent US7410970B2, “Substituted 1,4,-di-piperidin-4-yl-piperazine derivatives and their use as neurokinin antagonists” (Janssen Pharmaceutica, N.V., priority 2002, dated 2008).

Usually melting point stands for the temperature, or range, at which the solid turns liquid.

The structures appear in SMILES notation.

Series [1] concerns the target T1, h-NK1 receptor (Homo sapiens, UniProt P25103).
T1 construct: expressed in transfected cells; host or cells: CHO cells
Kind of series: Binding experiment for h-NK1 receptor: displacement of [3H]-Substance P, CHO cells. Conditions: cloned human h-NK1 receptors expressed in CHO cells, read-out: h-NK1 pIC50 (converted). Here is the method: (§1) The compounds according to the invention were investigated for interaction with various neurotransmitter receptors, ion channels and transporter binding sites using the radioligand binding technique. Membranes from tissue homogenates or from cells, expressing the receptor or transporter of interests, were incubated with a radioactively labelled substance ([^3H]- or [^125I] ligand) to label a particular receptor. […] Following incubation, labelled membranes were harvested and rinsed with excessive cold buffer to remove non-bound radioactivity by rapid filtration under suction. Membrane bound radioactivity was counted in a scintillation counter and results were expressed in counts per minute (cpm). The compounds were dissolved in DMSO and tested at 10 concentrations ranging from 10^−10 to 10^−5 M. The ability of the compounds according to the invention to displace [^3H]-Substance P from cloned human h-NK1 receptors expressed in CHO cells, to displace [^3H]-SR-48968 from cloned human h-NK2 receptors expressed in Sf9 cells, and to displace [^3H]-SR-142801 from cloned human h-NK3 receptors expressed in CHO cells was evaluated.

The target of series [2] is T2, h-NK3 receptor (Homo sapiens, UniProt P29371).
T2 construct: expressed in transfected cells; host or cells: CHO cells
T2 sequence (P29371 1-465): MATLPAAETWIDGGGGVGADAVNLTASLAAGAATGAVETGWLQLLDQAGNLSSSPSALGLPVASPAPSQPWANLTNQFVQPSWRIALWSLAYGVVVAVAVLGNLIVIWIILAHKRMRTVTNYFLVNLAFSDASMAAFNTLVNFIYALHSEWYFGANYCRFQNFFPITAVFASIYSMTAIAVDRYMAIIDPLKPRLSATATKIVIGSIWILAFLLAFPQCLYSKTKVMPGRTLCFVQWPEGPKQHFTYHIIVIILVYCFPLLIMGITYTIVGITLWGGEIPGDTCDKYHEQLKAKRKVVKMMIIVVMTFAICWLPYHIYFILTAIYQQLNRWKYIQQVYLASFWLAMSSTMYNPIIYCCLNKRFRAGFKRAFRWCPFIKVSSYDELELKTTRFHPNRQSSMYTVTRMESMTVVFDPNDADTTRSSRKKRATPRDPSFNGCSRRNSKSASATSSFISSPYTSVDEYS
Description: Binding experiment for h-NK3 receptor: displacement of [3H]-SR-142801, CHO cells. Conditions: cloned human h-NK3 receptors expressed in CHO cells, read-out: h-NK3 pIC50 (converted). The protocol: as §1

Series [3] addresses T3, h-NK2 receptor (Homo sapiens, UniProt P21452).
T3 construct: expressed in transfected cells; host or cells: Sf9 cells
T3 sequence (P21452 1-398): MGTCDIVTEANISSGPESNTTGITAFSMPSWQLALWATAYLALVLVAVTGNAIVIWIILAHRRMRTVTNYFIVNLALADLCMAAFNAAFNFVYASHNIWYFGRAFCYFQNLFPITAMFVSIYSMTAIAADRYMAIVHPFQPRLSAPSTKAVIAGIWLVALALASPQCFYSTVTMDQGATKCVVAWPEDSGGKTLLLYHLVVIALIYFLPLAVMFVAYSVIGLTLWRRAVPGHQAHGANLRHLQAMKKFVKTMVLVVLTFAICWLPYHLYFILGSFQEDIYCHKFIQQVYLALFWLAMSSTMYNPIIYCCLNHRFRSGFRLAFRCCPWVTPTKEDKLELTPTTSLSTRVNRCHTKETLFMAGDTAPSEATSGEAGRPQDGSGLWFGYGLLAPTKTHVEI
Description: Binding experiment for h-NK2 receptor: displacement of [3H]-SR-48968, Sf9 cells. Conditions: cloned human h-NK2 receptors expressed in Sf9 cells, read-out: h-NK2 pIC50 (converted). Here is the method: as §1
(Displacement assays read how much labelled ligand stays bound in the presence of the test substance.)

T1 sequence (P25103 whole entry): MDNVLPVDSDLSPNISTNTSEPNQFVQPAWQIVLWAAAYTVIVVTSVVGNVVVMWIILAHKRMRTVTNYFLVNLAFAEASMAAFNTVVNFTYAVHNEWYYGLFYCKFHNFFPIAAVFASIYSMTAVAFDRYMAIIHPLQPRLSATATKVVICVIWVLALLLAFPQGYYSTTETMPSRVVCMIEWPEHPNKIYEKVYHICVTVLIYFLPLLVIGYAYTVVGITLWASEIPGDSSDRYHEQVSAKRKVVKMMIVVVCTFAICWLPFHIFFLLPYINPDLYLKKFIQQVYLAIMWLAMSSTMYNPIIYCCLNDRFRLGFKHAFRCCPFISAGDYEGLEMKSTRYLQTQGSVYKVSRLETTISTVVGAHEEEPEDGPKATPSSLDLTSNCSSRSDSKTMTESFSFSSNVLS

`COc1cc(N)c(Cl)cc1C(=O)N1CCC(N2CCN([C@H]3CCN(C(=O)c4cc(C(F)(F)F)cc(C(F)(F)F)c4)[C@H](Cc4ccccc4)C3)CC2)CC1` [Compound 64]: the values for the IC50 in series [1], in series [2] and in series [3] were 7.94 nM, 398 nM and 398 nM, respectively.

As for `O=C(c1cc(C(F)(F)F)cc(C(F)(F)F)c1)N1CCC(N2CCN(C3CCN(Cc4nc5ccccc5[nH]4)CC3)CC2)CC1Cc1ccccc1` (stereo not shown) [Compound 7], the melting point was 135 °C.
